# Data taken from PMC9666779 (Frontiers in Pharmacology, 2022).
# Bridge positions count the residues as written; N and C are the ends. Square brackets hold non-standard residues; d marks the D form. Peptide text beside a SMILES is read from it.
# Tested on: pseudotyped SARS-CoV-2 Omicron BA.2.75
# Conditions: pseudotyped Omicron BA.2.75, 1 h, 2 μM
smiles,measurement,value
CC(C)C[C@@H]1NC(=O)[C@H](C(C)C)NC(=O)[C@H](C)NC(=O)[C@H](Cc2ccc(O)cc2)NC(=O)[C@H](CCC(N)=O)NC(=O)[C@H](CC(C)C)NC(=O)[C@@H](Cc2ccccc2)NC(=O)[C@H](N)CSSC[C@H](C(=O)NCC(=O)NCC(=O)NCC(=O)N[C@@H](CCCNC(=N)N)C(=O)N2CCC[C@H]2C(=O)N2CCC[C@H]2C(=O)N[C@@H](CCCNC(=N)N)C(=O)N[C@@H](CCCNC(=N)N)C(=O)N[C@@H](C)C(=O)N[C@@H](CCCNC(=N)N)C(=O)O)NC(=O)[C@H](CCC(=O)O)NC(=O)[C@H](CCCNC(=N)N)NC(=O)[C@H](CCCNC(=N)N)NC(=O)[C@H](CCCCN)NC(=O)[C@H](CCC(N)=O)NC(=O)[C@H](CCCCN)NC1=O [MN-2] (H-[dC][dF]LQYAVLKQKRRE[dC]GGGRPPRRAR-OH; disulfide 1-15),inhibition rate of the variant Omicron BA.2.75 pseudovirus,about 80%
